Among the data in patent publication US10077436B2, “Beta-glucosidase enzymes for increased biomass saccharification” (Edeniq, Inc., priority 2013, dated 2018) are Ki and Km/Ki values, retold here.

For this experiment, the target named is T1, Aspergillus niger beta-glucosidase (CAB75696.1, SEQ ID NO:2) improved variant yEdQ885-BG (Aspergillus niger, UniProt Q9P8F4, Y363C/Y375F/Y610F).
T1 construct: strain yEdQ885, BG acid/base mutant #8
T1 sequence (Q9P8F4 20-860 Y363C/Y375F/Y610F): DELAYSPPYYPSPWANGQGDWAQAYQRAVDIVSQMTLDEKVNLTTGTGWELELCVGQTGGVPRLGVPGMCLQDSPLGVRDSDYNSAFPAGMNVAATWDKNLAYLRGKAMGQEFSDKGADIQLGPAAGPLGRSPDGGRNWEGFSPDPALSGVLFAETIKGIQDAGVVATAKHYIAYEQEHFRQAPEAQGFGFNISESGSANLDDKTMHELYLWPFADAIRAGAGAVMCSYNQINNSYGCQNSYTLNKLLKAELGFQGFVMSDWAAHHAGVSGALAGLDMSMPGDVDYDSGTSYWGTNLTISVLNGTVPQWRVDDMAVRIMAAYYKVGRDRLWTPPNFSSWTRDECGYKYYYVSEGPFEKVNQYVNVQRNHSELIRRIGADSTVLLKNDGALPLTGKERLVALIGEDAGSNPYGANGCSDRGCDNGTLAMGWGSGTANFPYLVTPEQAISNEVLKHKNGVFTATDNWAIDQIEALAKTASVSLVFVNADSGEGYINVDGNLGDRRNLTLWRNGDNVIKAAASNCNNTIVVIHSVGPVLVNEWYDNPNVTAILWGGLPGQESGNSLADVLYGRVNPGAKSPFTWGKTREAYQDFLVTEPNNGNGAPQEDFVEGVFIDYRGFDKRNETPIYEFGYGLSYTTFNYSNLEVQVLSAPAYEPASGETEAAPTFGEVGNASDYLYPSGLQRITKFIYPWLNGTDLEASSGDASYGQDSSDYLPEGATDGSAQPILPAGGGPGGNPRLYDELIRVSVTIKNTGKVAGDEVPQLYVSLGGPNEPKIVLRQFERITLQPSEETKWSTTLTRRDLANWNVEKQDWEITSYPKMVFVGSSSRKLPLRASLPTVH
Put plainly: BG kinetics, pNPG hydrolysis assay with glucose as competitive inhibitor, yEdQ885-BG. The format is biochemical. The source says:
The beta-glucosidase (BG) gene from Aspergillus niger (Accession #CAB75696.1) was integrated into the TR3 yeast background at the T4U3 genomic site.
High resolution enzyme assays and kinetic testing comparing the beta-glucosidases described herein and commercial enzyme preparations were pursued to more clearly quantify differences in mutant BG enzymes compared to the wild type BG enzyme. Based on data presented herein, BG mutant YEdQ885 was selected for further analysis and compared to the BG activity present in commercial preparations of SP188 (Novozymes) and Accellerase® BG (DuPont) as well as wild type BG. […]
BG activity assay using pNPG is one of the two commonly used standard assays to measure BG activity, which utilizes hydrolysis of p-nitrophenyl-β-D-glucopyranoside (pNPG) by BG into a yellow colored product, p-nitrophenol (pNP), that has a strong absorbance at 405 nm. […] The reaction was then terminated by adding 100 μL of 0.25 M sodium carbonate, and the amount of pNP produced was determined by measuring absorbance at 405 nm using a predetermined calibration curve. […]
To determine the kinetic properties, a competitive inhibition mechanism was hypothesized as proposed in the literature (Chauve et al, 2010; Krogh et al, 2010). […] The turnover number, Kcat, can be calculated by Equation (2), where [Et] is the total amount of enzyme. […]

Molecule `OC[C@H]1OC(O)[C@H](O)[C@@H](O)[C@@H]1O` (some centres unmarked) [glucose] registered a Ki of 2190 ± 100 µM. Moreover, under “inhibitor influence, Km for pNPG / Ki for glucose, pH 5.0, 50° C.”, the Km/Ki came to 0.29.

Usually Ki stands for a measure of affinity in units of concentration, obtained from inhibition or displacement. Lower therefore signals higher affinity.
